From patent publication US7314726B2, “Beta secretase exosite binding peptides and methods for identifying beta secretase modulators” (Bristol-Myers Squibb Company, priority 2002, dated 2008) come the findings set out here.

The target of assay [1] is T1, BACE (Homo sapiens, UniProt P56817). The assay is described as follows: Isothermal titration calorimetry (ITC) of BACE and peptides. It counts as binding. Further details: The cDNA for the catalytic domain of human BACE (residues 1-460) was PCR-amplified; human IgG1 heavy chain (C, cleaved yes); thrombin cleavage site (C); made in house; host or cells: CHO DG44 cells (stably transfected, secreted). How it is done:
Isothermal titration calorimetry was performed to determine quantitatively the binding affinities of BMS-561877 and BMS-561871 for β-secretase. Recombinant human BACE was expressed as a fusion protein with human IgG1, in Chinese hamster ovary (CHO) cells (Vassar et al., (1999) Science 286:735-741 and Haniu et al., (2000) J. Biol. Chem. 275:21099-21106).
This construct, referred to as BACE-T-IgG, also contained a protease cleavage site between BACE and IgG1, sensitive to human α-thrombin. The cDNA for the catalytic domain of human BACE (residues 1-460) was PCR-amplified and subcloned into the mammalian expression vector pTV1.6, upstream of a thrombin cleavage site linked to cDNA encoding human IgG1 heavy chain. The vector construct, pTV1.6-BACE-T-IgG, was used to produce stably transfected DHFR-deficient CHO DG44 cells, which were then scaled up using methotrexate for selection.
The clarified growth media harvested from CHO DG44 cells which contained the fusion protein was loaded onto a rProtein A SEPHAROSE™ column (5×20 cm, Amersham Pharmacia Biotech) using a peristaltic pump at 4° C., at 4 mL/min. The column was washed with Dulbecco's PBS, pH 7.1, 4 mL/min, until baseline absorbance at 280 nm was observed. BACE-T-IgG was eluted from the resin with 0.10 M citrate, pH 3.0, into tubes containing 0.5 volumes of 4 M Tris, pH 8. Fractions containing the fusion protein were dialyzed extensively using 12,000-14,000 […] MWCO membrane (UltraPURE, GIBCO BRL) against PBS, pH 7.1, at 4° C. The protein was sterile filtered (0.22 μm) and stored at 4° C.
To generate BACE for binding experiments, the fusion protein BACE-T-IgG was treated with human α-thrombin (Enzyme Research Labs, South Bend, Ind.) at a ratio of 1:500 (mass:mass) in Dulbecco's PBS, pH 7.1, at 37° C. for 2 hr. Human α-thrombin was removed by passing the sample over Benzamidine SEPHAROSE™ 6B column (Amersham Pharmacia Biotech). The cleaved IgG1 was captured by passing the solution over a rProtein A SEPHAROSE™ (Amersham Pharmacia Biotech) column, whereas the BACE passed through this column. The protein sample was further purified by concentrating to 10-15 mg/mL using a centrifugation concentration unit (Millipore Ultrafree 10 kDa MWCO, 15 mL unit) and loading onto a SUPERDEX™ 200 PC 3.2/30 gel-filtration column (Amersham Pharmacia Biotech). The column was run at 3 mL/min with Dulbecco's PBS, pH 7.1, at room temperature. Fractions containing BACE were combined, sterile filtered (0.22 μm) and stored at 4° C.
BACE was prepared for isothermal titrating calorimetry by extensive dialysis against fresh buffer at 4° C. using 12,000-14,000 […] MWCO dialysis membrane (UltraPURE, GIBCO BRL). […] Following 2 buffer changes, the protein was removed from the membrane and centrifuged (5 min×4000 g, 4° C.) to remove particulates. The protein was stored at 4° C. until needed for the calorimetry experiments. The protein concentration was determined by 10-fold dilution into the same buffer, and measuring the UV absorbance at 280 nm in a 1.00 cm pathlength cell (calculated value=1.22 AU=1.00 mg/mL protein, based on mean glycosylated molecular weight=53.5 kDa, and given amino acid composition). Final concentrations used in isothermal titrating calorimetry were typically 5.0 μM, containing a final concentration of 0.5% v/v DMSO.
Peptides were dissolved in the buffer dialysate from protein dialysis, and equal volumes of DMSO were added to each (0.5% v/v DMSO). The pH values of the solutions were adjusted as necessary to equal that of the buffer dialysate and protein sample within 0.01 pH units.
(In ITC the heat of successive injections is recorded.)

Assay [2] addresses T1, BACE. The assay is described as follows: Competitive binding assay, displacement of labeled EBP from BACE, fluorescence anisotropy. More on the design: The cDNA for the catalytic domain of human BACE (residues 1-460) was PCR-amplified; human IgG1 heavy chain (C, cleaved yes); thrombin cleavage site (C); made in house; host or cells: CHO DG44 cells (stably transfected, secreted). As to conditions: displacement of Molecule X, read-out: binding constant (Kd) of unlabeled peptide by competition. How it is done:
The competitive binding assay was carried out at pH 7.1 (PBS buffer) or pH 4.5 (50 mM acetate buffer). The fluorescence anisotropy was measured at 25° C. in an AVIV fluorometer. The excitation and emission wavelengths were set to 495 and 519 nm, respectively. The excitation and emission slit widths were 4 and 10 nm, respectively.
The initial anisotropy value was measured. A concentrated unlabeled peptide or compound stock was titrated into the above solution of EBP and BACE. The final concentration of unlabeled peptide or compound ranges from 20 to 20000 nM. After each addition, the solution was mixed for 10 times with a pipettor. The fluorescence anisotropy was averaged over a 5 minute period.
The change in anisotropy was converted to fractional occupancy based on the r0 and rb obtained from the binding assay. The fractional occupancy was then plotted against the concentration of the competing peptide or compound. (see, for example, FIG. 6) The Kd of the competing ligand was calculated from curve fitting using the program […]™ (Synergy Software, Reading, Pa.). The equation used to fit the competition data is identical to equation 4 in Lai et al., (2000) Arch. Biochem. Biophys. 381:278-284.
The truncated unlabeled peptides were screened at a single concentration of 10 μM at pH 4.5. The anisotropy values detected with Molecule X in the absence of inhibitor, i.e., truncated unlabeled peptide (ra) and in the presence of the inhibitor (rb) and the labeled peptide alone (r0) were used to calculate the percent of inhibition: 100 (ra-rb)/(ra-r0). The percent of inhibition was compared among the truncated peptides.

[3] abbreviates: pH 5.3, 37° C., sample cell: CHO BACE.
Setting [4] is: pH 5.3, 37° C., sample cell: CHO BACE: OM99-2 (10-fold excess added first).

T1 sequence (P56817 46-460 limits assumed): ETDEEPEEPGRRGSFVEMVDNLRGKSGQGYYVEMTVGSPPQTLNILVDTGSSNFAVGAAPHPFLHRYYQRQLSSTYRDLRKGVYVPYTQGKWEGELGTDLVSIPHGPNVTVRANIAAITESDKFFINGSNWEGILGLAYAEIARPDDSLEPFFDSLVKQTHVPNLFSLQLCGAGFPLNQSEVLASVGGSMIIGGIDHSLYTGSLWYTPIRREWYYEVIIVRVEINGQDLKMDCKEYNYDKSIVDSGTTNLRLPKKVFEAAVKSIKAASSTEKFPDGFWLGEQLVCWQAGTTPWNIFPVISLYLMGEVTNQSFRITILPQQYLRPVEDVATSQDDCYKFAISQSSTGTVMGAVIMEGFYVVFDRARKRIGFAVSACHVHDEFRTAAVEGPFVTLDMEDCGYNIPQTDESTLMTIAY

As for Ac-NLTTYPYFIPLP-OH [BMS-561871], on BACE [1] (25° C., Dulbecco's PBS, pH 7.1), the KA came to 1.65e+07 M⁻¹; the Kd (as a rule, a measure of binding affinity in units of concentration) was determined as 61 nM; the “n (binding stoichiometry)” value is 1.03; the ΔH was -12.9 kcal/mol. In addition, on BACE [1] (setting [3]), the dissociation constant Kd was 380 nM, the “T(dS)” value is -6.8 kcal/mol, the ΔG is -9.1 kcal/mol and the ΔH was -15.9 kcal/mol. On BACE [1] (setting [4]), the Kd stood at 280 nM, the “T(dS)” value was -5.7 kcal/mol, the ΔG was -9.3 kcal/mol and the ΔH was -15.0 kcal/mol. For the same substance, the Kd on BACE [2] (pH 4.5) was 1070 nM. In addition, the Kd at BACE [2] (pH 7.1) was 84 nM.
